This is an account of results in US10047051B2, “Substituted pyridines and method of use” (AbbVie S.á{acute over (.)}r.l., priority 2015, dated 2018).

Format in all cases: cell-based
The target of assay [1] is T1, CFTR G551D/ΔF508 (Homo sapiens, UniProt P13569, G551D).
T1 construct: host or cells: primary human bronchial epithelial cells from CF patients heterozygous G551D/ΔF508, no corrector pre-treatment
The experiment in a line: TECC assay, primary bronchial epithelial cells, CFTR G551D/ΔF508. The settings on record: primary bronchial epithelial cells heterozygous G551D/ΔF508, acute mode, increase in Isc after forskolin. The protocol:
(§1) The TECC (Tranepithelial Clamp Circuit, EP-design) assay measures the functionality of the cystic fibrosis Transmembrane Conductance regulator (CFTR) by measuring the short circuit current (Isc) generated over the basolateral and apical membrane of lung epithelial cells. In TECC the transepithelial potential PD and transepithelial resistance (Rt) are measured in an open circuit and transformed to Isc using Ohm's law. 24 Wells can be measured simultaneously allowing a higher throughput compared to Ussing chambers.
(§2) For this purpose, bronchial epithelial cells isolated from CF patients homozygous for the CFTR ΔF508 mutation (hAEC-CF, Epithelix) are plated on type IV collagen-coated Transwell® supports (Costar). Human airway epithelia are generated by provision of an air-liquid interface for 21 days to form well-differentiated polarized cultures that resemble in vivo pseudo-stratified ciliated epithelium (Fulcher, M. L., Gabriel, S., Burns, K. A., Yankaskas, J. R., Randell, S. H., 2005. Well-differentiated human airway epithelial cell cultures. Methods Mol. Med. 107, 183-206). In the case of the homozygous ΔF508 CFTR samples, the differentiated cells are treated with 3 μM VX809 (2626 South Loop West, Suite 225, Houston, Tex. 77054 USA, Cat n# S1565) to allow sufficient expression of properly folded CFTR protein on the membrane (48 hours basolateral treatment and 24 hours apical treatment), prior to electrophysiological recordings. For heterozygous G551D/ΔF508, differentiated cells are used as such for the recordings.
(§3) Information on the compounds can be retrieved on the homozygous ΔF508 CFTR samples looking at increased CFTR activity when compounds are added in an acute mode or in a chronic mode. On G551D/ΔF508 CFTR heterozygous samples compounds are added in an acute mode to the differentiated cells.
(§4) For the acute mode, for electrophysiological recording, the human airway epithelia are mounted in the TECC heating plate for electrophysiological measurement and kept at 37° C. The epithelia are bathed in a NaCl-Ringer solution (120 mM NaCl, 25 mM NaHCO3, 1.2 mM CaCl2, 1.2 mM MgCl2, 0.8 mM KH2PO4, 0.8 mM K2HPO4, pH 7.4, 5 mM glucose) on both the basolateral and apical sides. Apical amiloride is used to inhibit the endogenous ENaC currents while forkolin is applied on both apical and basolateral side to stimulate CFTR. After forskolin triggering, compounds are added on both sides to test their potential for increasing CFTR gating. Measurements are done during a 20 minute timeframe with recordings every 2 minutes. The increase in Isc is used as a measure for the increased CFTR activity, EC50 values can be generated by measuring impact of different concentrations of compound on Isc on primary cells, for this purpose each transwell is treated with a different compound concentration. Inh-172, an inhibitor specific for CFTR, is used to test the specificity of the tested compounds.
When subjected to this protocol, the following values were obtained. The difference between ΔIsc measured as DMSO (baseline), and the ΔIsc measured with the compound tested.

Assay [2] deals with G551D CFTR (Homo sapiens, UniProt P13569, G551D). The experiment in a line: TECC assay, FRT-CFTR G551D protocol. The settings on record: FRT cells stably transfected with G551D CFTR, high expression cells, increase in Isc after forskolin. The protocol: For G551D recordings, Fischer Rat Thyroid (FRT) cells stably transfected with G551D CFTR (a low CFTR-G551D expressing cell line and a high expressing CFTR-G551D cell line from Rosalind Franklin University of Medicine and Science, North Chicago, Ill.) are plated on Transwell® supports (Costar 6.5 mm diameter, 0.4 μm pore size). The cells are grown for 8-10 days under liquid-liquid interface conditions prior to electrophysiological readings. For electrophysiological recording, the FRT-G551D cells are mounted in the TECC heating plate for electrophysiological measurement and kept at 37° C. The epithelia are bathed in HEPES buffered culturing medium without FBS on both the basolateral and apical sides. Apical amiloride is used to inhibit the endogenous ENaC currents while forkolin is applied on both apical and basolateral side to stimulate CFTR. After forskolin triggering, compounds are added on both sides to test their potential for increasing CFTR gating. Measurements are done during a 10 minute timeframe with recordings every 2 minutes. The increase in Isc is used as a measure for the increased CFTR activity, EC50 values can be generated by measuring impact of different concentrations of compound on Isc on the cells, for this purpose each transwell is treated with a different compound concentration. Inh-172, an inhibitor specific for CFTR, is used to test the specificity of the tested compounds.
G551D CFTR, sequence (P13569 whole entry G551D): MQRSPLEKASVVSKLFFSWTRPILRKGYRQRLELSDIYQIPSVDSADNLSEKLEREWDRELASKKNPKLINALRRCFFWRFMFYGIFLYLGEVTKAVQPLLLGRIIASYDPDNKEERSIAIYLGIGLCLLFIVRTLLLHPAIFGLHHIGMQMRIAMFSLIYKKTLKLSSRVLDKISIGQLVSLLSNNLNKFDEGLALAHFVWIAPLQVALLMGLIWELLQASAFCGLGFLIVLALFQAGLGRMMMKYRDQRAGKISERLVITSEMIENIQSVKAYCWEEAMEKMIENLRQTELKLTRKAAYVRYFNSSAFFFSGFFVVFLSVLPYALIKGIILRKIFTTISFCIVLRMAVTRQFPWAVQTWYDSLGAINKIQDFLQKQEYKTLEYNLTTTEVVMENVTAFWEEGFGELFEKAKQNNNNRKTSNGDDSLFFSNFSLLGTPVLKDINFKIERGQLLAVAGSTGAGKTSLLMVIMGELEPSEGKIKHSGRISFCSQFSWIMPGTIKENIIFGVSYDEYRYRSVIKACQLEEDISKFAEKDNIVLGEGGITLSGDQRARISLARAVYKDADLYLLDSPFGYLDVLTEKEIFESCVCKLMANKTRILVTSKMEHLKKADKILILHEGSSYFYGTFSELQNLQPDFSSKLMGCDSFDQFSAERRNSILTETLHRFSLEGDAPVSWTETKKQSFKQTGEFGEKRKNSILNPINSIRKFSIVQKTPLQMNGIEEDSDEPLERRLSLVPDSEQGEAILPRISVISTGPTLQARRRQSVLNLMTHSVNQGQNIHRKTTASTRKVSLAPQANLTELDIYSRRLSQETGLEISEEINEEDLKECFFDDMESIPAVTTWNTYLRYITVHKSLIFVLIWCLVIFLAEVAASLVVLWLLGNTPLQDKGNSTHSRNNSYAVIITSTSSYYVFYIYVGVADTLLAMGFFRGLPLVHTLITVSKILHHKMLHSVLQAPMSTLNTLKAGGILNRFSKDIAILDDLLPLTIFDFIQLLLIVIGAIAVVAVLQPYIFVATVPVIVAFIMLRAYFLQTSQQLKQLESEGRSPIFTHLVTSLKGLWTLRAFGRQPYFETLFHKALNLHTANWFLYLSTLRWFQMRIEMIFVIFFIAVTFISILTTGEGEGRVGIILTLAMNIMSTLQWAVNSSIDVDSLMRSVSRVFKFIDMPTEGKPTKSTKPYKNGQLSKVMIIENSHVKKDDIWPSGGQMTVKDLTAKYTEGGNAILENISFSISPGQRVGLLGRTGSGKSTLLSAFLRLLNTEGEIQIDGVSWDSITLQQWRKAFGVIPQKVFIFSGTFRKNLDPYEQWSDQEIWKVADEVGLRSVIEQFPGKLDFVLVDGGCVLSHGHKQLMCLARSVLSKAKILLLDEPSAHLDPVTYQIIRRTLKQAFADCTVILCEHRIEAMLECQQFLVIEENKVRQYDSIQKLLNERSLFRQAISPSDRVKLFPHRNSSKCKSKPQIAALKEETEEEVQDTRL

In assay [3] the target is T2, CFTR ΔF508 (Homo sapiens, UniProt P13569, DEL508-508).
T2 construct: host or cells: primary human bronchial epithelial cells from CF patients homozygous for ΔF508, pre-treated with VX809
T2 sequence (P13569 with tags, fused parts or gaps DEL508-508): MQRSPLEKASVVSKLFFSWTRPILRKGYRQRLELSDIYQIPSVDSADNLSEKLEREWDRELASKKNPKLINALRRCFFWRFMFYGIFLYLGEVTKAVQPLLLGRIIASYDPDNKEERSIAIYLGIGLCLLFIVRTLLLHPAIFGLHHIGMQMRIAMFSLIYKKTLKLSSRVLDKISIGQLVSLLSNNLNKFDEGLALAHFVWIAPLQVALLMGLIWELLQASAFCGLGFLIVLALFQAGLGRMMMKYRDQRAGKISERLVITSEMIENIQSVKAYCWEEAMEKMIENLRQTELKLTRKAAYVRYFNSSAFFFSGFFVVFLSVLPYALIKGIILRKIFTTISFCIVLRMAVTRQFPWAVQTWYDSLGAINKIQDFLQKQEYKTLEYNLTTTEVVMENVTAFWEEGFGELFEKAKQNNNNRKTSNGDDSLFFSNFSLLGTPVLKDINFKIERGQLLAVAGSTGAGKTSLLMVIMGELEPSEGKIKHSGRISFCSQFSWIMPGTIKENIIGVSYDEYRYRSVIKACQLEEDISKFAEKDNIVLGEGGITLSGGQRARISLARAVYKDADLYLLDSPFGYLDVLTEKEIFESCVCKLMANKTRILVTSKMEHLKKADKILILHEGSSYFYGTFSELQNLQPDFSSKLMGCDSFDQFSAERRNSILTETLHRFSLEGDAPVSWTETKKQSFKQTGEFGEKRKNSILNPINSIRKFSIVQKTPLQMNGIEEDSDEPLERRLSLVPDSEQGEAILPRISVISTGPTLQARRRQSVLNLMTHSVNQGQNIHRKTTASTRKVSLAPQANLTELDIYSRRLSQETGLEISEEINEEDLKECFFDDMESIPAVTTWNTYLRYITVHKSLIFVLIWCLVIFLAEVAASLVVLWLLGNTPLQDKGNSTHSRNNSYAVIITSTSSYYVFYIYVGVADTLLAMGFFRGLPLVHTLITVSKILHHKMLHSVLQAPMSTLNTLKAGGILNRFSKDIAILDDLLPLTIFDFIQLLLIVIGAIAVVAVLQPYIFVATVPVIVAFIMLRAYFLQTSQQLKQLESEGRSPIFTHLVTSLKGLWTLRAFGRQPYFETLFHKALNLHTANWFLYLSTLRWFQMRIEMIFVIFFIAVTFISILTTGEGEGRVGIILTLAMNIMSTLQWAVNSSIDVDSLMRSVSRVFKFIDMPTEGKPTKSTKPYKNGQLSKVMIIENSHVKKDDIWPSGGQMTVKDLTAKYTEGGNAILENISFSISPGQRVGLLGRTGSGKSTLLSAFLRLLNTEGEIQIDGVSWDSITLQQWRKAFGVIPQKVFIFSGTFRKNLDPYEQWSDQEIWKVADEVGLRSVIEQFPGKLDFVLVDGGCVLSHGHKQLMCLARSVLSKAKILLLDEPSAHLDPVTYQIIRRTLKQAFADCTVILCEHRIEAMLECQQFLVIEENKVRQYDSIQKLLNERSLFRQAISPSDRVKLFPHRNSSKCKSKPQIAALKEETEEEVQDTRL
The experiment in a line: TECC assay, primary bronchial epithelial cells, CFTR ΔF508. The settings on record: primary bronchial epithelial cells of CF patients homozygous for CFTR ΔF508, treated with 3 μM VX809, increase in Isc after forskolin. The procedure: as §1, §2, §3, §4
For the chronic mode, the differentiated cells are treated with 3 μM VX809 (2626 South Loop West, Suite 225, Houston, Tex. 77054 USA, Cat n# S1565) and potentiator compounds at different concentrations (48 hours basolateral treatment and 24 hours apical treatment), prior to electrophysiological recordings. For electrophysiological recording, the human airway epithelia are mounted in the TECC heating plate for electrophysiological measurement and kept at 37° C. The epithelia are bathed in a NaCl-Ringer solution (120 mM NaCl, 25 mM NaHCO3, 1.2 mM CaCl2, 1.2 mM MgCl2, 0.8 mM KH2PO4, 0.8 mM K2HPO4, pH 7.4, 5 mM glucose) on both the basolateral and apical sides. Apical amiloride is used to inhibit the endogenous ENaC currents while forkolin is applied on both apical and basolateral side to stimulate CFTR. Measurements are done during a 20 minute timeframe with recordings every 2 minutes. […]

T1 sequence (P13569 whole entry F508del/G551D): as the sequence (P13569 with tags, fused parts or gaps DEL508-508) above, with G550D counted along it

On to `Nc1cc(S(=O)(=O)c2ccc(OC(F)(F)F)cc2)cnc1C(=O)NCCO` [Compound 14, 3-amino-N-(2-hydroxyethyl)-5-{[4-(trifluoromethoxy)phenyl]sulfonyl}pyridine-2-carboxamide], for which the EC50 (usually the midpoint of the concentration-response curve) in assay [1] is 5300 nM; in assay [2], 11700 nM.

Turning to `Nc1cc(S(=O)(=O)c2ccc(OC(F)(F)F)cc2)cnc1C(=O)NCC(O)COCC1CC1` (stereo not shown) [Compound 31, 3-amino-N-[3-(cyclopropylmethoxy)-2-hydroxypropyl]-5-{[4-(trifluoromethoxy)phenyl]sulfonyl}pyridine-2-carboxamide], the EC50 in assay [1] is 632 nM; in assay [2], 824 nM; in assay [3], 48.4 nM.

With `Nc1cc(S(=O)(=O)c2ccc(OC(F)(F)F)cc2)cnc1C(=O)N1CC(F)(F)C1` [Compound 40, (3-amino-5-{[4-(trifluoromethoxy)phenyl]sulfonyl}pyridin-2-yl)(3,3-difluoroazetidin-1-yl)methanone], the EC50 in assay [1] turned out to be 443 nM; in assay [3], 62.2 nM.

On to `Nc1cc(S(=O)(=O)c2ccc(OC(F)(F)F)cc2)cnc1C(=O)N1CC(O)C1` [Compound 32, (3-amino-5-{[4-(trifluoromethoxy)phenyl]sulfonyl}pyridin-2-yl)(3-hydroxyazetidin-1-yl)methanone], for which the EC50 in assay [3] was determined as 72.9 nM.

Consider `COC[C@H](O)CNC(=O)c1ncc(S(=O)(=O)c2ccc(C(F)(F)F)cc2)cc1N` [Compound 70, 3-amino-N-[(2R)-2-hydroxy-3-methoxypropyl]-5-{[4-(trifluoromethyl)phenyl]sulfonyl}pyridine-2-carboxamide], for which the EC50 in assay [1] stood at 3520 nM; in assay [2] it was 622 nM; in assay [3], 38.8 nM.

As to `Nc1cc(S(=O)(=O)c2ccc(OC(F)(F)F)cc2)cnc1C(=O)NC[C@@H](O)C(F)(F)F` [Compound 37, 3-amino-N-[(2R)-3,3,3-trifluoro-2-hydroxypropyl]-5-{[4-(trifluoromethoxy)phenyl]sulfonyl}pyridine-2-carboxamide], the values for the EC50 in assay [1] and in assay [3] were 232 nM and 13.2 nM, respectively.

Take `C[C@H](O)CNC(=O)c1ncc(S(=O)(=O)c2ccc(OC(F)(F)F)cc2)cc1N` [Compound 21, 3-amino-N-[(2S)-2-hydroxypropyl]-5-{[4-(trifluoromethoxy)phenyl]sulfonyl}pyridine-2-carboxamide]: the EC50 was determined as 847 nM in assay [1], 1630 nM in assay [2] and 35.5 nM in assay [3].

Turning to `Nc1cc(S(=O)(=O)c2ccccc2OC(F)(F)F)cnc1C(=O)NC[C@@H](O)C(F)(F)F` [Compound 81, 3-amino-N-[(2R)-3,3,3-trifluoro-2-hydroxypropyl]-5-{[2-(trifluoromethoxy)phenyl]sulfonyl}pyridine-2-carboxamide], the EC50 in assay [3] worked out at 9.49 nM.

In the case of `Nc1cc(S(=O)(=O)c2ccc(OC(F)(F)F)cc2)cnc1C(=O)NC[C@H](O)C(F)(F)F` [Compound 26, 3-amino-N-[(2S)-3,3,3-trifluoro-2-hydroxypropyl]-5-{[4-(trifluoromethoxy)phenyl]sulfonyl}pyridine-2-carboxamide], the EC50 in assay [2] was 1230 nM; in assay [3], 24 nM.

Consider `Nc1cc(S(=O)(=O)c2ccc(OC(F)(F)F)cc2)cnc1C(=O)NCC(O)C(F)(F)F` (stereo not shown) [Compound 6, 3-amino-N-(3,3,3-trifluoro-2-hydroxypropyl)-5-{[4-(trifluoromethoxy)phenyl]sulfonyl}pyridine-2-carboxamide], for which the results for the concentration giving a half-maximal response (EC50) in assay [2] and in assay [3] were 443 nM and 63.2 nM, respectively.

Turning to `CC(C)(O)CNC(=O)c1ncc(S(=O)(=O)c2ccc(OC(F)(F)F)cc2)cc1N` [Compound 1, 3-amino-N-(2-hydroxy-2-methylpropyl)-5-{[4-(trifluoromethoxy)phenyl]sulfonyl}pyridine-2-carboxamide], the figures for the EC50 in assay [2] and in assay [3] were 645 nM and 95.9 nM, respectively.

On to `CC(O)(CNC(=O)c1ncc(S(=O)(=O)c2ccc(OC(F)(F)F)cc2)cc1N)C(F)(F)F` (stereo not shown) [Compound 2, 3-amino-N-(3,3,3-trifluoro-2-hydroxy-2-methylpropyl)-5-{[4-(trifluoromethoxy)phenyl]sulfonyl}pyridine-2-carboxamide], for which the concentration giving a half-maximal response (EC50) in assay [3] came out at 47.1 nM.

As to `Nc1cc(S(=O)(=O)c2ccc(F)cc2)cnc1C(=O)NC[C@H](O)C(F)(F)F` [Compound 25, 3-amino-5-[(4-fluorophenyl)sulfonyl]-N-[(2S)-3,3,3-trifluoro-2-hydroxypropyl]pyridine-2-carboxamide], the EC50 in assay [2] is 1200 nM; in assay [3], 38.6 nM.

Take `C[C@H](O)CNC(=O)c1ncc(S(=O)(=O)c2ccc(C(F)(F)F)cc2)cc1N` [Compound 100, 3-amino-N-[(2S)-2-hydroxypropyl]-5-{[4-(trifluoromethyl)phenyl]sulfonyl}pyridine-2-carboxamide]: the EC50 in assay [1] turned out to be 2380 nM; in assay [2], 1190 nM.

As to `Nc1cc(S(=O)(=O)c2ccc(F)cc2)cnc1C(=O)NC[C@@H](O)C(F)(F)F` [Compound 36, 3-amino-5-[(4-fluorophenyl)sulfonyl]-N-[(2R)-3,3,3-trifluoro-2-hydroxypropyl]pyridine-2-carboxamide], the results for the EC50 in assay [1], in assay [2] and in assay [3] were 1010 nM, 735 nM and 63 nM, respectively.
